Patent US20080311126A1, “Antisense Oligonucleotides Directed to Ribonucleotide Reducatase R2 and Uses Thereof in Combination Therapies for the Treatment of Cancer” (Genesense Technologies, Inc, priority 2004, published 2008)
Entries after “also recorded” stand apart in the source; their conditions may differ.

How the values were obtained:
Assay type in all cases: in vivo
[1] = tested on: MDA-MB435-To.1 human Taxol-resistant breast adenocarcinoma cells; assay: MDA-MB435-To.1 Taxol-resistant breast adenocarcinoma, fat pad injection in SCID mice; design: Tumour weight as % of saline control: concentration or dose not given beside the values; conditions: for Tumour weight as % of saline control: MDA-MB435-To.1 (breast), Taxol resistance
Procedure: MDA-MB435-To.1 human Taxol-resistant breast adenocarcinoma cells (4×10^6 cells in […] of PBS) were injected into the fat pad (inside of right leg) of 6-7 weeks old female SCID mice. After the size of tumour reached an approximate volume of 100 mm^3, 20 days post tumour cell injection, SEQ ID NO:1 was administered by bolus infusion into the tail vein every other day at 10 mg/kg 15 times. Control animals received saline alone for the same period. Antitumour effect of SEQ ID NO:1 was further compared to that of Cisplatin or Taxol alone. Cisplatin was administered intravenously once a week for four weeks at a dose of 4 mg/kg. Taxol was administered intravenously once a week for four weeks at a dose of 20 mg/kg.
Antitumour activities were estimated by the inhibition of tumour volume, which was measured with caliper. Bach point represents mean tumour volume calculated from 9-10 animals per experimental group. […] As expected, treatment with Taxol during the same period was ineffective against Taxol-resistant tumour.
MDA-MB435-To.1 human Taxol-resistant breast adenocarcinoma cells (4×10^6 cells in 100 μl of PBS) were injected into the fat pad (inside of right leg) of 6-7 weeks old female CB-17 SCID mice. After the size of tumour reached an approximate volume of 100 mm^3, 17 days post tumour cell injection, SEQ ID NO:1 was administered by bolus infusion into the tail vein every other day at 10 mg/kg. Control animals received saline alone for the same period. Antitumour effect of SEQ ID NO:1 was compared to that of Cisplatin alone and in combination. Cisplatin was administered intravenously once a week for four weeks at a dose of 4 mg/kg. Antitumour activities were estimated by the inhibition of tumour volume, which was measured with caliper. Each point represents mean tumour volume calculated from 10 animals per experimental group. At the end of the study the animals were sacrificed and tumours weighed.

[2] = tested on: BxPC-3 human pancreatic carcinoma cells; assay: BxPC-3 gemcitabine resistant pancreatic carcinoma xenograft in CD-1 nude mice
Procedure: BxPC-3 human pancreatic carcinoma cells (3×10^6 cells in 100 μl of PBS) were subcutaneously injected into the right flank of 6-7 weeks old female CD-1 nude mice. BxPC-3 is a gemcitabine resistant call line. After the size of tumour reached an approximate volume of 100 mm^3, 21 days post tumour cell injection, SEQ ID NO:1 was administered by bolus infusion into the tail vein every other day at 10 mg/kg 17 times. Control animals received saline alone for the same period. Antitumour effect of SEQ ID NO:1 was further compared to that of Gemcitabine. Gemcitabine was administered intravenously every three days at a dose of 100 mg/kg. Antitumour activities were estimated by the inhibition of tumour volume, which was measured with caliper. Each point represents mean tumour volume calculated from 10 animals per experimental group. […] As expected, treatment with Gemcitabine during the same period was ineffective against Gemcitabine-resistant tumour (FIGS. 19A & B).

[3] = tested on: Caki-1 human renal carcinoma; assay: Caki-1 renal tumour xenograft in SCID mice, SEQ ID NO:1 and interleukin-2; conditions: Example 10; SEQ ID NO:1 10 mg/kg/48 hours i.v.; IL2 20000 or 5000 unit 2 times per day i.p.
Procedure: Cell line: Human renal carcinoma cell line (Caki-1) was grown as monolayer culture in Minimum essential medium (α-MEM) supplemented with 10% fetal bovine serum (FBS), 0.1 mM non-essential amino acid, 1.0 mM sodium pyruvate, 100 U/ml penicillin, 100 μg/ml streptomycin and 0.25 μg/ml amphotericin B and 2 mM L-alanyl-1-glutamine at 37° C. in an atmosphere of 5% CO2 in air. The tumour cells were routinely subcultured twice weekly by trypsin-EDTA treatment. The cells were harvested from subconfluent logarithmically growing culture by treatment with trypsin-EDTA and counted for tumour inoculation.
Tumour Inoculation: An acclimation period of at least 7 days was allowed between animal receipt and commencement of tumour inoculation. […]
Groups and treatments: The following treatments were evaluated in this experiment: • 1. […]
Tumour sizes were measured every week day from day 7 after the tumour cell inoculation in two dimensions using a caliper, and the volume was expressed in mm^3 using the formula: V=0.5 a×b^2, where a and b are the long and short diameters of the tumour, respectively. Mean tumour volumes calculated from each measurement were then plotted in a standard graph to compare the anti-tumour efficacy to that of controls. A day after the last treatment, tumours were excised from the animals and their weights were measured.

“GGCTAAATCGCTCCACCAAG (chemistry not given here) [SEQ ID NO: 1, antisense oligonucleotide that hybridizes to the coding region of human ribonucleotide reductase R2 mRNA]” was tested, and the “antitumour effect (tumour volume)” value ([1]; Example 13.5, SEQ ID NO:1 10 mg/kg 15 times, Cisplatin 4 mg/kg, Taxol 20 mg/kg i.v. weekly for four weeks) was “significant reduction of tumour weight; also recorded: superior to the inhibitory effects observed with Cisplatin”, the “antitumour effect (tumour volume, tumour weight)” value ([1]; Example 13.6, CB-17 SCID mice, SEQ ID NO:1 10 mg/kg every other day, Cisplatin 4 mg/kg i.v. weekly) was “significant reduction of tumour weight; also recorded: superior to the inhibitory effects observed with Cisplatin” and the “Tumour weight as % of saline control” value ([1]; CB-17/SCID) was 37%. The “Tumour weight as % of saline control” value ([1]; SCID) was 42%, the “Tumour weight as % of saline control” value ([2]; BxPC-3 (pancreatic), Gemcitabine resistance, CD-1) was 5.8% and the “antitumour effect (tumour volume)” value ([2]; SEQ ID NO:1 10 mg/kg 17 times i.v., Gemcitabine 100 mg/kg i.v. every three days) was “significant delay of tumour growth”. For the same sequence, the “anti-tumour efficacy (tumour volume, tumour weight)” value [3] was “anti-tumour efficacy as monotherapies; also recorded: superior to both high and low dose IL-2 therapy”.
